pIC50: −log10 of the molar value. Counter-ions that a name gives are not always drawn. Like-named read-outs stand apart in the source and are kept apart here.
Molecular target: Recombinant human cathepsin S (CatS) (Homo sapiens, UniProt P25774)
Experiment: Recombinant human cathepsin S (CatS) inhibition assay, fluorogenic substrate Z-Valine-Valine-Arginine-AMC;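 note: Baculovirus-expressed CatS in pH 5.0 sodium acetate buffer with DTT and NaCl, fluorescence read each minute over 20 min, inhibition derived from rate slope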

Recombinant human cathepsin S (CatS), sequence (P25774 115-331): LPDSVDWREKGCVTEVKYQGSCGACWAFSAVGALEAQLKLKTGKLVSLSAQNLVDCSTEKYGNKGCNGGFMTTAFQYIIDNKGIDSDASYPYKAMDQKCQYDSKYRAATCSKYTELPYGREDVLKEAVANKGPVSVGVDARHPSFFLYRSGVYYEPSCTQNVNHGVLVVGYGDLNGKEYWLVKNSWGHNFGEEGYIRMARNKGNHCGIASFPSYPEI

Structure (SMILES): CS(=O)(=O)N1CCc2c(c(-c3ccc(Cl)c(C#Cc4ccc(CNC5CCCc6ccccc65)cc4)c3)nn2CCCN2CCN(c3ccccn3)CC2)C1 (stereo in doubt) [Example 215, (1R)—N-({4-[(2-Chloro-5-{5-(methylsulfonyl)-1-[3-(4-pyridin-2-ylpiperazin-1-yl)propyl]-4,5,6,7-tetrahydro-1H-pyrazolo[4,3-c]pyridin-3-yl}phenyl)ethynyl]phenyl}methyl)-1,2,3,4-tetrahydronaphthalen-1-amine]
- pIC50: 7.52

Structure (SMILES): COC(=O)CNCc1cc(C#Cc2cc(-c3nn(CCCN4CCOCC4C)c4c3CN(C(N)=O)CC4)ccc2Cl)ccc1Cl (stereo in doubt) [Example 220, Methyl N-{[5-({5-[5-(aminocarbonyl)-1-{3-[(3S)-3-methylmorpholin-4-yl]propyl}-4,5,6,7-tetrahydro-1H-pyrazolo[4,3-c]pyridin-3-yl]-2-chlorophenyl}ethynyl)-2-chlorophenyl]methyl}glycinate]
- pIC50: 7.52

Structure (SMILES): CC1COCCN1CCCn1nc(-c2ccc(Cl)c(C#Cc3ccc(Cl)c(CNCC(=O)O)c3)c2)c2c1CCN(C(N)=O)C2 (stereo in doubt) [Example 221, N-{[5-({5-[5-(Aminocarbonyl)-1-{3-[(3S)-3-methylmorpholin-4-yl]propyl}-4,5,6,7-tetrahydro-1H-pyrazolo[4,3-c]pyridin-3-yl]-2-chlorophenyl}ethynyl)-2-chlorophenyl]methyl}glycine]
- pIC50: 7.70

Structure (SMILES): CC1COCCN1CCCn1nc(-c2ccc(Cl)c(C#Cc3ccc(Cl)c(CNCC4CCCO4)c3)c2)c2c1CCN(C(N)=O)C2 (stereo in doubt) [Example 223, 3-{4-Chloro-3-[(4-chloro-3-{[(tetrahydrofuran-2-ylmethyl)amino]methyl}phenyl)ethynyl]phenyl}-1-{3-[(3S)-3-methylmorpholin-4-yl]propyl}-1,4,6,7-tetrahydro-5H-pyrazolo[4,3-c]pyridine-5-carboxamide]
- pIC50: 7.70

Structure (SMILES): CC1COCCN1CCCn1nc(-c2ccc(Cl)c(C#Cc3ccc(Cl)c(CNCc4ccccc4)c3)c2)c2c1CCN(C(N)=O)C2 (stereo in doubt) [Example 224, 3-{4-Chloro-3-[(4-chloro-3-{[(phenylmethyl)amino]methyl}phenyl)ethynyl]phenyl}-1-{3-[(3S)-3-methylmorpholin-4-yl]propyl}-1,4,6,7-tetrahydro-5H-pyrazolo[4,3-c]pyridine-5-carboxamide]
- pIC50 (CatS IC50): 7.70

Structure (SMILES): C[C@H]1COCCN1CC(O)Cn1nc(-c2ccc(Cl)c(C#Cc3ccc(CNCc4ccc(Cl)cc4)cc3)c2)c2c1CCN(C(N)=O)C2 (stereo in doubt) [Example 258, 3-(4-Chloro-3-{4-[(4-chloro-benzylamino)-methyl]-phenylethynyl}-phenyl)-1-[(2S)-2-hydroxy-3-((3S)-3-methyl-morpholin-4-yl)-propyl]-1,4,6,7-tetrahydro-pyrazolo[4,3-c]pyridine-5-carboxylic acid amide]
- pIC50: 7.10

Structure (SMILES): CC1COCCN1C[C@H](O)Cn1nc(-c2ccc(Cl)c(C#Cc3ccc(CNCc4ccc(Cl)cc4)cc3)c2)c2c1CCN(S(C)(=O)=O)C2 (stereo in doubt) [Example 266, (2S)-1-[3-(4-Chloro-3-{4-[(4-chloro-benzylamino)-methyl]-phenylethynyl}-phenyl)-5-methanesulfonyl-4,5,6,7-tetrahydro-pyrazolo[4,3-c]pyridin-1-yl]-3-((3S)-3-methyl-morpholin-4-yl)-propan-2-ol]
- pIC50: 6.46

Structure (SMILES): CS(=O)(=O)N1CCc2c(c(-c3ccc(Cl)c(C#Cc4ccc5[nH]ccc5c4)c3)nn2CCCN2CCOCC2)C1 [Example 1, 3-[4-Chloro-3-(1H-indol-5-ylethynyl)-phenyl]-5-methanesulfonyl-1-(3-morpholin-4-yl-propyl)-4,5,6,7-tetrahydro-1H-pyrazolo[4,3-c]pyridine]
- pIC50: 6.72

Structure (SMILES): CS(=O)(=O)N1CCc2c(c(-c3ccc(Cl)c(CCc4ccc5[nH]ccc5c4)c3)nn2CCCN2CCOCC2)C1 [Example 2, 3-{4-Chloro-3-[2-(1H-indol-5-yl)-ethyl]-phenyl}-5-methanesulfonyl-1-(3-morpholin-4-yl-propyl)-4,5,6,7-tetrahydro-1H-pyrazolo[4,3-c]pyridine]
- pIC50: 6.46

Structure (SMILES): CS(=O)(=O)N1CCc2c(c(-c3ccc(Cl)c(C#Cc4ccc(CC#N)cc4)c3)nn2CCCN2CCOCC2)C1 [Example 3, (4-{2-Chloro-5-[5-methanesulfonyl-1-(3-morpholin-4-yl-propyl)-4,5,6,7-tetrahydro-1H-pyrazolo[4,3-c]pyridin-3-yl]-phenylethynyl}-phenyl)-acetonitrile]
- pIC50: 6.57

Structure (SMILES): CS(=O)(=O)N1CCc2c(c(-c3ccc(Cl)c(C#Cc4cccc(CC#N)c4)c3)nn2CCCN2CCOCC2)C1 [Example 4, (3-{2-Chloro-5-[5-methanesulfonyl-1-(3-morpholin-4-yl-propyl)-4,5,6,7-tetrahydro-1H-pyrazolo[4,3-c]pyridin-3-yl]-phenylethynyl}-phenyl)-acetonitrile]
- pIC50: 6.12

Structure (SMILES): CS(=O)(=O)N1CCc2c(c(-c3ccc(Cl)c(C#Cc4ccc(CO)cc4)c3)nn2CCCN2CCOCC2)C1 [Example 5, (4-{2-Chloro-5-[5-methanesulfonyl-1-(3-morpholin-4-yl-propyl)-4,5,6,7-tetrahydro-1H-pyrazolo[4,3-c]pyridin-3-yl]-phenylethynyl}-phenyl)-methanol]
- pIC50: 6.54

Structure (SMILES): CS(=O)(=O)N1CCc2c(c(-c3ccc(Cl)c(C#Cc4cccc(CO)c4)c3)nn2CCCN2CCOCC2)C1 [Example 6, (3-{2-Chloro-5-[5-methanesulfonyl-1-(3-morpholin-4-yl-propyl)-4,5,6,7-tetrahydro-1H-pyrazolo[4,3-c]pyridin-3-yl]-phenylethynyl}-phenyl)-methanol]
- pIC50: 6.02

Structure (SMILES): CS(=O)(=O)N1CCc2c(c(-c3ccc(Cl)c(C#Cc4ccc(O)cc4)c3)nn2CCCN2CCOCC2)C1 [Example 7, 4-{2-Chloro-5-[5-methanesulfonyl-1-(3-morpholin-4-yl-propyl)-4,5,6,7-tetrahydro-1H-pyrazolo[4,3-c]pyridin-3-yl]-phenylethynyl}-phenol]
- pIC50: 6.60

Structure (SMILES): CS(=O)(=O)N1CCc2c(c(-c3ccc(Cl)c(C#Cc4ccc(CCCC(=O)O)cc4)c3)nn2CCCN2CCOCC2)C1 [Example 8, 4-(4-{2-Chloro-5-[5-methanesulfonyl-1-(3-morpholin-4-yl-propyl)-4,5,6,7-tetrahydro-1H-pyrazolo[4,3-c]pyridin-3-yl]-phenylethynyl}-phenyl)-butyric acid]
- pIC50: 6.72

Structure (SMILES): CS(=O)(=O)N1CCc2c(c(-c3ccc(Cl)c(C#Cc4ccc(CCC(=O)O)cc4)c3)nn2CCCN2CCOCC2)C1 [Example 9, 3-(4-{2-Chloro-5-[5-methanesulfonyl-1-(3-morpholin-4-yl-propyl)-4,5,6,7-tetrahydro-1H-pyrazolo[4,3-c]pyridin-3-yl]-phenylethynyl}-phenyl)-propionic acid]
- pIC50: 6.80

Structure (SMILES): COC(=O)Cc1ccc(C#Cc2cc(-c3nn(CCCN4CCOCC4)c4c3CN(S(C)(=O)=O)CC4)ccc2Cl)cc1 [Example 10, (4-{2-Chloro-5-[5-methanesulfonyl-1-(3-morpholin-4-yl-propyl)-4,5,6,7-tetrahydro-1H-pyrazolo[4,3-c]pyridin-3-yl]-phenylethynyl}-phenyl)-acetic acid methyl ester]
- pIC50: 6.38

Structure (SMILES): COC(=O)Cc1cccc(C#Cc2cc(-c3nn(CCCN4CCOCC4)c4c3CN(S(C)(=O)=O)CC4)ccc2Cl)c1 [Example 11, (3-{2-Chloro-5-[5-methanesulfonyl-1-(3-morpholin-4-yl-propyl)-4,5,6,7-tetrahydro-1H-pyrazolo[4,3-c]pyridin-3-yl]-phenylethynyl}-phenyl)-acetic acid methyl ester]
- pIC50: 5.59

Structure (SMILES): CS(=O)(=O)N1CCc2c(c(-c3ccc(Cl)c(C#Cc4cccs4)c3)nn2CCCN2CCOCC2)C1 [Example 12, 3-(4-Chloro-3-thiophen-2-ylethynyl-phenyl)-5-methanesulfonyl-1-(3-morpholin-4-yl-propyl)-4,5,6,7-tetrahydro-1H-pyrazolo[4,3-c]pyridine]
- pIC50 (CatS IC50): 6.10

Structure (SMILES): CS(=O)(=O)N1CCc2c(c(-c3ccc(Cl)c(C#Cc4ccc(Cl)c(Cl)c4)c3)nn2CCCN2CCOCC2)C1 [Example 13, 3-[4-Chloro-3-(3,4-dichloro-phenylethynyl)-phenyl]-5-methanesulfonyl-1-(3-morpholin-4-yl-propyl)-4,5,6,7-tetrahydro-1H-pyrazolo[4,3-c]pyridine]
- pIC50 (CatS IC50): 6.49

Structure (SMILES): CS(=O)(=O)N1CCc2c(c(-c3ccc(Cl)c(C#Cc4ccc(Oc5ccc(I)cc5)cc4)c3)nn2CCCN2CCOCC2)C1 [Example 14, 3-{4-Chloro-3-[4-(4-iodo-phenoxy)-phenylethynyl]-phenyl}-5-methanesulfonyl-1-(3-morpholin-4-yl-propyl)-4,5,6,7-tetrahydro-1H-pyrazolo[4,3-c]pyridine]
- pIC50: 4.70

Structure (SMILES): CS(=O)(=O)N1CCc2c(c(-c3ccc(Cl)c(C#Cc4ccc(CC(=O)O)cc4)c3)nn2CCCN2CCOCC2)C1 [Example 15, (4-{2-Chloro-5-[5-methanesulfonyl-1-(3-morpholin-4-yl-propyl)-4,5,6,7-tetrahydro-1H-pyrazolo[4,3-c]pyridin-3-yl]-phenylethynyl}-phenyl)-acetic acid, trifluoroacetic acid salt]
- pIC50: 6.82

Structure (SMILES): CS(=O)(=O)N1CCc2c(c(-c3ccc(Cl)c(C#Cc4cccc(CC(=O)O)c4)c3)nn2CCCN2CCOCC2)C1 [Example 16, (3-{2-Chloro-5-[5-methanesulfonyl-1-(3-morpholin-4-yl-propyl)-4,5,6,7-tetrahydro-1H-pyrazolo[4,3-c]pyridin-3-yl]-phenylethynyl}-phenyl)-acetic acid]
- pIC50: 5.94

Structure (SMILES): CS(=O)(=O)N1CCc2c(c(-c3ccc(Cl)c(C#Cc4ccc(Oc5ccccc5)cc4)c3)nn2CCCN2CCOCC2)C1 [Example 17, 3-[4-Chloro-3-(4-phenoxy-phenylethynyl)-phenyl]-5-methanesulfonyl-1-(3-morpholin-4-yl-propyl)-4,5,6,7-tetrahydro-1H-pyrazolo[4,3-c]pyridine]
- pIC50: 5.72

Structure (SMILES): CS(=O)(=O)N1CCc2c(c(-c3ccc(Cl)c(C#Cc4ccc(Br)cc4)c3)nn2CCCN2CCOCC2)C1 [Example 18, 3-[3-(4-Bromo-phenylethynyl)-4-chloro-phenyl]-5-methanesulfonyl-1-(3-morpholin-4-yl-propyl)-4,5,6,7-tetrahydro-1H-pyrazolo[4,3-c]pyridine]
- pIC50: 6.74

Source: US20080200454A1, “CARBON-LINKED TETRAHYDRO-PYRAZOLO-PYRIDINE MODULATORS OF CATHEPSIN S” (priority 2007, published 2008)
